Here are results for five compounds from patent publication US4251524A (priority 1976, dated 1981).

The test system of the assay is Klebsiella pneumoniae; Enterobacter aerogenes sp.; Providencia; Serratia marcescens; E. coli BE; Salmonella sp.; Shigella sp.; Proteus, indole-negative and …. It counts as cell-based. To be noted: 100 μg/ml, Muller-Hinton nutrient broth with 0.1% glucose, 1×10^5 to 2×10^5 bacteria per ml, 24 hours; all listed cultures.
In the case of `CC1(C)S[C@@H]2[C@H](NC(=O)[C@H](NC(=O)N3CCN(N=Cc4ccccc4)C3=O)c3ccccc3)C(=O)N2[C@H]1C(=O)O` [Example 1.3, sodium 6-{D-α-[(2-oxo-3-benzalimino-imidazolidin-1yl)-carbonylamino]phenylacetamido}-penicillanate], the “freedom from turbidity of bacterial cultures (indicates action)” value is “free from turbidity”.
Turning to `CC1(C)S[C@@H]2[C@H](NC(=O)[C@H](NC(=O)N3CCN(N=Cc4ccc(Cl)cc4)C3=O)c3ccccc3)C(=O)N2[C@H]1C(=O)O` [Example 2.3, sodium 6-{D-α-[(2-oxo-3-{4-chloro}-benzalimino-imidazolidin-1-yl)-carbonylamino]-phenylacetamido}-penicillanate], the “freedom from turbidity of bacterial cultures (indicates action)” value was “free from turbidity”.
To `CC1(C)S[C@@H]2[C@H](NC(=O)[C@H](NC(=O)N3CCN(N=Cc4ccc(Cl)cc4)C3=O)C3=CCC=CC3)C(=O)N2[C@H]1C(=O)O` [Example 2.4, sodium 6-{D-α-[(2-oxo-3-{4-chloro}-benzalimino-imidazolidin-1-yl)-carbonylamino]-cyclohex-1,4-dien-1-yl-acetamido}-penicillanate] belongs “free from turbidity”; to `CC=CC=NN1CCN(C(=O)N[C@@H](C(=O)N[C@]2(OC)C(=O)N3C(C(=O)O)=C(COC(C)=O)CS[C@@H]32)c2ccccc2)C1=O` [Example 36, 7-methoxy-7-{D-α-[(2-oxo-3-but-2-enylideneamino-imidazolidin-1-yl)-carbonylamino]-phenylacetamido}-3-acetoxymethyl-ceph-3-em-4-carboxylic acid], “free from turbidity”.
To `COC1(NC(=O)[C@H](NC(=O)N2CCN(N=Cc3ccco3)C2=O)c2ccccc2)C(=O)N2C(C(=O)O)=C(COC(C)=O)CS[C@@H]21` (some centres unmarked) [Example 36.5] belongs “free from turbidity”.
